# Laboratory results as given in patent US20170058314A1, “NOVEL METHODOLOGY FOR IDENTIFYING ANTI-PERSISTER ACTIVITY AND ANTIMICROBIAL SUSCEPTIBILITY FOR BORRELIA BURGDORFERI AND OTHER BACTERIA” (priority 2014, published 2017).
# Tests used:
# [1] = test system: stationary phase B. burgdorferi persisters (strain B31); experiment: epifluorescence microscope counting after SYBR Green I/PI staining, FDA drug screen; conditions: Borreliella burgdorferi, 168 h, read-out: Residual viable cells (epifluorescence microscope counting)
# [2] = test system: stationary phase B. burgdorferi; experiment: Subculture test of drug-treated stationary phase B. burgdorferi; format: cell-based, Borrelia burgdorferi; conditions: 10 μg/mL
# [3] = test system: log phase and stationary phase B. burgdorferi culture; experiment: Antibiotic exposure assay, SYBR Green I/PI (drugs alone and combinations)
# Summary of the method: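 Stationary-phase or round-body B. burgdorferi exposed 7 days at 33 °C to drugs alone or combined at 10 μg/mL each (single-compound screen: 50 μM final). Viability by SYBR Green I/PI, ex 485, em 535/635 nm; percent live from regression of green/red ratio, corrected by direct microscopy counting.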
# [4] = test system: stationary phase B. burgdorferi persisters (strain B31); experiment: NCI compound library screen, SYBR Green I/PI assay (plate reader)
# [5] = test system: stationary phase B. burgdorferi persisters (strain B31); experiment: NCI compound library rescreen, epifluorescence microscope counting; conditions: Borreliella burgdorferi, 168 h
# [6] = test system: round body form of B. burgdorferi; experiment: Subculture test of drug-treated round body form
# Protocol: For induction of round body form of B. burgdorferi, B. burgdorferi spirochetes (1×10^5 spirochetes/mL) were cultured in BKS-H medium for 6 days without shaking. After the 6-day incubation, amoxicillin at a final concentration of 50 μg/mL was added to the culture for round body form induction. After 72 h induction at 33° C., the round body forms of B. burgdorferi were examined by the microscopy. The round body cells (100 μL) were transferred to 96-well tissue culture microplates for evaluation of the effects of antibiotic treatment.
# [7] = test system: round body form of B. burgdorferi; experiment: SYBR Green I/PI assay on amoxicillin-induced round body form
# [8] = 7 days treatment, then subculture
# [9] = 10 μg/mL drugs or combinations, 7 days
# [10] = 10 μg/mL, 7 days treatment, then subculture
structure (smiles),measurement,setting,value
C[C@H]1c2cccc(O)c2C(=O)C2=C(O)[C@]3(O)C(=O)C(C(N)=O)=C(O)[C@@H](N(C)C)[C@@H]3[C@@H](O)[C@@H]21 [Doxycycline],viability at 50 µM,[1],75%
same,G/R ratio immediately after treatment,[2]; 7 days,6.71
same,G/R ratio after 7 day subculture,[2]; [8],6.23
same,G/R ratio after 15 day subculture,[2]; [8],6.89
same,Spirochetes after 7 day subculture (microscope counting),[2]; [8],9 × 10^5
same,Spirochetes after 15 day subculture (microscope counting),[2]; [8],~5×10^6
same,Spirochetes after 15 day subculture (microscope counting),"[2]; 7 days treatment, then subculture, listed as Dox",4 × 10^6
same,viability at 10 µg/mL,"[2]; Borreliella burgdorferi, 168 h, seven-day-old culture, 7 days, read-out: Residual viable cells (epifluorescence microscope counting)",67%
same,"Live cell %, ten day old stationary phase culture (in brackets)",[3]; [9],72%
same,viability at 10 µg/mL,"[3]; Borreliella burgdorferi, 168 h, read-out: Live Cell % (residual viable B. burgdorferi), ten-day-old stationary phase culture enriched with micro-colonies, 10 μg/mL each drug, 7 days",72%
same,Residual viable cells (SYBR Green I/PI assay),"[4]; 50 μM, seven day old stationary phase culture, 7 days",68%
same,viability at 20 µM,"[4]; Borreliella burgdorferi, 168 h, read-out: Residual viable cells (%) 20 μM (SYBR Green I/PI assay), 20 μM, seven day old stationary phase, 7 days",76%
same,viability at 50 µM,"[4]; Borreliella burgdorferi, 168 h, read-out: Residual viable cells (SYBR Green I/PI assay), 50 μM, seven day old stationary phase culture, 7 days",75%
same,viability at 50 µM,[5]; read-out: Activity against persisters (residual viable cell percentage),77%
same,viability at 20 µM,[5]; read-out: Residual viable cells (%) 20 μM (epifluorescence microscope counting),77%
same,viability at 50 µM,[5]; read-out: Residual viable cells (%) 50 μM (epifluorescence microscope counting),77%
same,viability at 50 µM,[5]; read-out: Residual viable cells (epifluorescence microscope counting),77%
same,Spirochetes number After 10 day subculture,[6]; [10],1 × 10^6
same,Spirochetes number After 20 day subculture,[6]; [10],about 5×10^6
same,Spirochetes number After 20 day subculture,"[6]; 10 μg/mL, 7 days treatment, then subculture, listed as Dox",5 × 10^6
same,viability at 10 µg/mL,"[6]; Borreliella burgdorferi, 168 h, read-out: Residual viable cells",44%
same,"Live cell %, round body form",[7]; [9],49%
same,viability at 50 µM,"[7]; Borreliella burgdorferi, 168 h, read-out: Residual viable cells (SYBR Green I/PI assay)",42%
same,"Ratios of green/red fluorescence, Primary screening","[7]; round body form, 50 μM, 7 days",6.34
same,"Ratios of green/red fluorescence, Rescreening (first column)","[7]; round body form, 50 μM, 7 days",6.39
same,"Ratios of green/red fluorescence, Rescreening (second column)","[7]; round body form, 50 μM, 7 days",6.67
